Measurements taken from patent US8946299B2, “Use of calixarenes associated with an antibiotic in the treatment of bacterial infections” (Universite de Lorraine, priority 2011, dated 2015).
Where “and” joins values, the source holds several entries; their conditions need not be identical. Equal values may be shown once.

Columns and labels:
[1] = system: MRSA strain having a resistance to the aminoglycosides and fluoroquinolones (SaR3); test: Chessboard technique: MICs alone and synergism of Cx1 combinations; format: cell-based, Staphylococcus aureus; details: n = 4; for MIC (antibiotic): antibiotic used alone, second figure of the cell
Text: (§1) Three reference strains were used, corresponding to those studied for the MICs and MBCs (Minimum Bactericidal Concentration): Escherichia coli ATCC 25922, Staphylococcus aureus ATCC 29213, Pseudomonas aeruginosa ATCC 27853. For each of these strains 3 corresponding clinical isolates were chosen, having various antibiotic-resistance profiles, routinely used in standard fashion: • EcR1, EcR2, EcR3; • SaR1, SaR3, SaR4; • PaR2, PaR3, PaR5.
(§2) 1.3. Procedure: Chessboard Technique
(§3) The bacterial suspension is transferred to a 15 mL Falcon tube, centrifuged for 10 min at 4500 g, then the pellet is re-suspended in 1 mL of sterile distilled water. Suitable dilutions are then prepared in order to obtain a bacterial inoculum between 5·10^5 and 5·10^6 CFU/mL.
(§4) The MICs of the antibiotics were previously determined for each strain, by the method of microdilution in a liquid medium (CLSI (Clinical and Laboratory Standards Institute), 2003).
(§5) The same procedure is followed for the Cx1. […] Thus 64 ATB/Cx1 combinations are obtained.
(§6) The final volume contained in each of the wells must be 100 μL. Two controls must be present on each plate: • column 1 and 12: medium control • column 2 and 11: medium+bacteria control
(§7) Cx1: […] in the wells of […], starting with the lowest concentration.
(§8) ATB: 25 μL in the wells of rows H to A (columns 3 to 11), starting with the lowest concentration.
(§9) 50 μL in each of the wells of columns 2 to 11.
(§10) D2: Reading the Turbidity at 540 Nm.
(§11) The FIC (Fractional Inhibitory Concentration Index) value is determined by the following formula:
(§12) [formula] MICA in combination MICA alone MICB in combination MICB alone
(§13) When FIC≦0.5, there is a synergistic effect between antibiotic A and antibiotic B.
(§14) When 0.5<FIC≦1, there is an additive effect between antibiotic A and antibiotic B.
(§15) When 1<FIC≦4, there is an indifferent effect between antibiotic A and antibiotic B.
(§16) When FIC>4, there is an antagonistic effect between antibiotic A and antibiotic B.
(§17) For each strain and each antibiotic/Cx1 combination, the experiments were repeated a minimum of 3 times.

[2] = system: Staphylococcus aureus strain ATCC 29213 (wild type); test: as above; format: cell-based; details: for Initials MIC (antibiotic): antibiotic used alone, second figure of the cell
Text: as §1, §2, §3, §4, §5, §6, §7, §8, §9, §10, §11, §12, §13, §14, §15, §16, §17

[3] = system: MRSA strain without associated resistance (SaR1); test: as above; format: cell-based, Staphylococcus aureus; details: n = 4; for MIC (antibiotic): antibiotic used alone, second figure of the cell
Text: as §1, §2, §3, §4, §5, §6, §7, §8, §9, §10, §11, §12, §13, §14, §15, §16, §17

[4] = system: MRSA strain having a resistance to the aminoglycosides, fluoroquinolones, macrolides-lincosamides-synergistins and ofloxacin (SaR4); test: as above; format: cell-based, Staphylococcus aureus; details: n = 4; for MIC (antibiotic): antibiotic used alone, second figure of the cell
Text: as §1, §2, §3, §4, §5, §6, §7, §8, §9, §10, §11, §12, §13, §14, §15, §16, §17

[5] = system: EcR1: Penicillinase-Producing Escherichia coli without Associated Resistance; test: Antibiogram by the disk diffusion technique; format: cell-based; details: for diameter in mm: Table A2, diameter; for Results (diameter): Table A1, category from diameter vs Dmin Dmax
Description: (§18) 5. Identification and Antibiogram 5.1 EcR1: Penicillinase-Producing Escherichia coli without Associated Resistance
(§19) The bacterial and antibiogram identification is carried out by the VITEK 2 system (bioMérieux) and by the disk diffusion technique.

[6] = system: EcR1: Penicillinase-Producing Escherichia coli without Associated Resistance; test: Antibiogram, MIC by the VITEK 2 system; format: cell-based; details: Table A1, category from MIC
Description: as §18, §19

[7] = system: penicillinase-producing strain of Escherichia coli without associated resistance (EcR1); test: Chessboard technique: MICs alone and synergism of Cx1 combinations; format: cell-based; details: n = 4; for Initial MICs (antibiotic): antibiotic used alone, second figure of the cell
Text: as §1, §2, §3, §4, §5, §6, §7, §8, §9, §10, §11, §12, §13, §14, §15, §16, §17

[8] = system: ESBL-producing strain of Escherichia coli (EcR3); test: as above; format: cell-based; details: n = 4; for Initial MICs (antibiotic): antibiotic used alone, second figure of the cell
Text: as §1, §2, §3, §4, §5, §6, §7, §8, §9, §10, §11, §12, §13, §14, §15, §16, §17

[9] = system: cephalosporinase-hyperproducing strain of Escherichia coli (EcR2); test: as above; format: cell-based; details: n = 4; for Initial MICs (antibiotic): antibiotic used alone, second figure of the cell
Text: as §1, §2, §3, §4, §5, §6, §7, §8, §9, §10, §11, §12, §13, §14, §15, §16, §17

[10] = system: Escherichia coli strain ATCC 25922 (wild type); test: as above; format: cell-based; details: for Initial MICs (antibiotic): antibiotic used alone, second figure of the cell
Text: as §1, §2, §3, §4, §5, §6, §7, §8, §9, §10, §11, §12, §13, §14, §15, §16, §17

[11] = system: Pseudomonas aeruginosa strain having a resistance to β-lactams (including the carbapenems), aminoglycosides, the trimethoprim-sulphamethoxazole combination and …; test: as above; format: cell-based; details: n = 4
Text: as §1, §2, §3, §4, §5, §6, §7, §8, §9, §10, §11, §12, §13, §14, §15, §16, §17

[12] = system: mucoid strain of Pseudomonas aeruginosa having a resistance to rifampicin and the trimethoprim-sulphamethoxazole combination (PaR5); test: as above; format: cell-based; details: n = 4
Text: as §1, §2, §3, §4, §5, §6, §7, §8, §9, §10, §11, §12, §13, §14, §15, §16, §17

[13] = system: Pseudomonas aeruginosa strain ATCC 27853 (wild type); test: as above; format: cell-based
Text: as §1, §2, §3, §4, §5, §6, §7, §8, §9, §10, §11, §12, §13, §14, §15, §16, §17

[14] = system: Pseudomonas aeruginosa strain having a resistance to β-lactams, the trimethoprim-sulphamethoxazole combination and fosfomycin (PaR2); format: cell-based; details: n = 4
Text: as §1, §2, §3, §4, §5, §6, §7, §8, §9, §10, §11, §12, §13, §14, §15, §16, §17

[15] = system: Escherichia coli, Staphylococcus aureus and Pseudomonas aeruginosa strains; test: Chessboard technique, summary over all strains and combinations tested; format: cell-based
Text: as §1, §2
The FIC (Fractional Inhibitory Concentration Index) value is determined by the following formula: […]
as §17

[16] = antibiotic used alone, second figure of the cell
[17] = Cx1 used alone, first figure of the cell
[18] = Cx1 used alone, first figure of the cell, n = 4

## C[C@H]1COc2c(N3CCN(C)CC3)c(F)cc3c(=O)c(C(=O)O)cn1c23 [Levofloxacin]
[1]
  MIC (antibiotic): 8/8 mg/L

## CC(=O)NC[C@H]1CN(c2ccc(N3CCOCC3)c(F)c2)C(=O)O1 [Linezolid]
[2]; n = 4
  Initials MIC (antibiotic): 2 µg/mL
[1]
  MIC (antibiotic): 2 mg/L
[3]
  MIC (antibiotic): 2 µg/mL
[4]
  MIC (antibiotic): 2 µg/mL

## CN(C)c1ccc(O)c2c1C[C@H]1C[C@H]3[C@H](N(C)C)C(O)=C(C(N)=O)C(=O)[C@@]3(O)C(O)=C1C2=O [Minocycline]
[5]
  diameter in mm: 20 mm

## CCn1cc(C(=O)O)c(=O)c2ccc(C)nc21 [Nalidixic acid]
[6]
  Results (MIC): Susceptible

## CCN[C@@H]1C[C@H](N)[C@@H](O[C@H]2OC(CN)=CC[C@H]2N)[C@H](O)[C@H]1O[C@H]1OC[C@](C)(O)[C@H](NC)[C@H]1O [Netilmicin]
[6]
  Results (MIC): Susceptible
[5]
  Results (diameter): Susceptible

## CCn1cc(C(=O)O)c(=O)c2cc(F)c(N3CCNCC3)cc21 [Norfloxacin]
[6]
  Results (MIC): Susceptible

## CCN1CCN(C(=O)N[C@@H](C(=O)N[C@@H]2C(=O)N3[C@@H]2SC(C)(C)[C@@H]3C(=O)O)c2ccccc2)C(=O)C1=O [Piperacillin]
[6]
  Results (MIC): Susceptible
[7]
  Initial MICs (antibiotic): 256 mg/L
[8]
  Initial MICs (antibiotic): 128 mg/L
[9]
  Initial MICs (antibiotic): 32 mg/L
[10]; n = 4
  Initial MICs (antibiotic): 2 mg/L
[5]
  Results (diameter): Intermediate

## CO[C@H]1/C=C/O[C@@]2(C)Oc3c(C)c(O)c4c(O)c(c(/C=N/N5CCN(C)CC5)c(O)c4c3C2=O)NC(=O)/C(C)=C\C=C\[C@H](C)[C@H](O)[C@@H](C)[C@@H](O)[C@@H](C)[C@H](OC(C)=O)[C@@H]1C [Rifampicin]
[7]
  Initial MICs (antibiotic): 4 mg/L
[8]
  Initial MICs (antibiotic): 4 mg/L
[11]; [16]
  MIC (antibiotic): 32/32 mg/L
[9]
  Initial MICs (antibiotic): 2/2 mg/L
[12]; [16]
  MIC (antibiotic): 16 µg/mL
[10]; n = 4
  Initial MICs (antibiotic): 4/4 mg/L
[13]; antibiotic used alone, second figure of the cell, n = 4
  MIC (antibiotic): 64 µg/mL
[5]
  diameter in mm: 16 mm
[14]; [16]
  MIC (antibiotic): 64 µg/mL

## [H]/N=C(/N)N[C@H]1[C@H](O)[C@@H](O)[C@H](O[C@@H]2O[C@@H](C)[C@](O)(C=O)[C@H]2O[C@@H]2O[C@@H](CO)[C@H](O)[C@@H](O)[C@@H]2NC)[C@@H](N/C(N)=N\[H])[C@@H]1O [Streptomycin]
[2]; n = 4
  Initials MIC (antibiotic): 4 µg/mL
[15]
  nature of the interaction between Cx1 and the antibiotic: synergism
[1]
  MIC (antibiotic): 4 mg/L
[3]
  MIC (antibiotic): 4 µg/mL
[4]
  MIC (antibiotic): 4 µg/mL

## CC1(C)S[C@@H]2[C@H](NC(=O)[C@H](C(=O)O)c3ccsc3)C(=O)N2[C@H]1C(=O)O [Ticarcillin]
[6]
  Results (MIC): Resistant
[5]
  Results (diameter): Resistant

## CN(C)c1cc(NC(=O)CNC(C)(C)C)c(O)c2c1C[C@H]1C[C@H]3[C@H](N(C)C)C(O)=C(C(N)=O)C(=O)[C@@]3(O)C(O)=C1C2=O [Tigecycline]
[15]
  nature of the interaction between Cx1 and the antibiotic: synergism

## para-guanidinoethylcalix[4]arene [Cx1]
[7]; [17]
  Initial MICs (Cx1): 2 mg/L
[8]; [17]
  Initial MICs (Cx1): 2 mg/L and 2/2 mg/L
[11]; [17]
  MIC (Cx1): 32 mg/L and 32/32 mg/L
[9]; [17]
  Initial MICs (Cx1): 2 mg/L and 2/2 mg/L
[2]; Cx1 alone, S. aureus ATCC 29213
  Initial MICs (Cx1): 8 mg/L
[2]; [18]
  Initials MIC (Cx1): 8 mg/L and 8/8 mg/L
[12]; [17]
  MIC (Cx1): 32/32 mg/L and 32 mg/L
[10]; Cx1 alone, E. coli ATCC 25922
  Initial MICs (Cx1): 4 mg/L
[10]; [18]
  Initial MICs (Cx1): 4 mg/L and 2 mg/L and 4/4 mg/L
[13]; Cx1 alone, P. aeruginosa ATCC 27853
  Initial MICs (Cx1): 32/32 mg/L and 32 mg/L
[13]; [18]
  MIC (Cx1): 32 µg/mL
[14]; [17]
  MIC (Cx1): 32 µg/mL
[1]; [17]
  MIC (Cx1): 8 mg/L and 8/8 mg/L
[3]; [17]
  MIC (Cx1): 8 µg/mL
[4]; [17]
  MIC (Cx1): 8 µg/mL
